Measured values as given in publication PMC4450297, “Screening Active Compounds from Garcinia Species Native to China Reveals Novel Compounds Targeting the STAT/JAK Signaling Pathway” (BioMed Research International, 2015).

Key:
Assay in all cases: Cell panel screen (CellTiter-Glo)
Format in all cases: cell-based, human
[1] = tested on: HCC1395; conditions: HCC1395 (Breast), 20 micromolar, 72 hrs
How it was run: (§1)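 Here, cancer cells cultured in medium with 10% FBS are treated for 72 h with each compound at 20 μM final. Viability is measured by ATP-dependent luminescence, and growth inhibition is calculated as a percentage against vehicle-only wells minus cell-free background.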

[2] = tested on: NCI-H524; conditions: NCI-H524 (Lung), 20 micromolar, 72 hrs
How it was run: as §1

[3] = tested on: J82; conditions: J82 (Urinary bladder), 20 micromolar, 72 hrs
How it was run: as §1

[4] = tested on: M059J; conditions: M059J (Brain), 20 micromolar, 72 hrs
How it was run: as §1

[5] = tested on: MSTO-211-H; conditions: MSTO-211-H (Lung), 20 micromolar, 72 hrs
How it was run: as §1

[6] = tested on: RL95; conditions: RL95 (Uterus), 20 micromolar, 72 hrs
How it was run: as §1

[7] = tested on: NCI-H1770; conditions: NCI-H1770 (Lung), 20 micromolar, 72 hrs
How it was run: as §1

[8] = tested on: NCI-H1623; conditions: NCI-H1623 (Lung), 20 micromolar, 72 hrs
How it was run: as §1

[9] = tested on: NCI-H1694; conditions: NCI-H1694 (Lung), 20 micromolar, 72 hrs
How it was run: as §1

[10] = tested on: HCC1569; conditions: HCC1569 (Breast), 20 micromolar, 72 hrs
How it was run: as §1

[11] = tested on: TCCSUP; conditions: TCCSUP (Urinary bladder), 20 micromolar, 72 hrs
How it was run: as §1

[12] = tested on: CW-2; conditions: CW-2 (Colon), 20 micromolar, 72 hrs
How it was run: as §1

[13] = tested on: HCC1599; conditions: HCC1599 (Breast), 20 micromolar, 72 hrs
How it was run: as §1

[14] = tested on: NCI-H2405; conditions: NCI-H2405 (Lung), 20 micromolar, 72 hrs
How it was run: as §1

[15] = tested on: A498; conditions: A498 (listed under Lung), 20 micromolar, 72 hrs
How it was run: as §1

[16] = tested on: C3A; conditions: C3A (Liver), 20 micromolar, 72 hrs
How it was run: as §1

[17] = tested on: HEC-1-A; conditions: HEC-1-A (Uterus), 20 micromolar, 72 hrs
How it was run: as §1

[18] = tested on: Bel-7402; conditions: Bel-7402 (Liver), 20 micromolar, 72 hrs
How it was run: as §1

[19] = tested on: T47D; conditions: T47D (Breast), 20 micromolar, 72 hrs
How it was run: as §1

[20] = tested on: ZR-75-30; conditions: ZR-75-30 (Breast), 20 micromolar, 72 hrs
How it was run: as §1

[21] = tested on: T98G; conditions: T98G (Brain), 20 micromolar, 72 hrs
How it was run: as §1

[22] = tested on: Panc 03.27; conditions: Panc 03.27 (Pancreas), 20 micromolar, 72 hrs
How it was run: as §1

[23] = tested on: Colo 205; conditions: Colo 205, 20 micromolar, 72 hrs
How it was run: as §1

[24] = tested on: NCI-H28; conditions: NCI-H28 (Lung), 20 micromolar, 72 hrs
How it was run: as §1

[25] = tested on: SW13; conditions: SW13 (Adrenal gland), 20 micromolar, 72 hrs
How it was run: as §1

[26] = tested on: ChaGo-K-1; conditions: ChaGo-K-1 (Lung), 20 micromolar, 72 hrs
How it was run: as §1

[27] = tested on: HPAF-II; conditions: HPAF-II (Pancreas), 20 micromolar, 72 hrs
How it was run: as §1

[28] = tested on: C8166; conditions: C8166 (Leukemia), 20 micromolar, 72 hrs
How it was run: as §1

[29] = tested on: HCC1937; conditions: HCC1937 (Breast), 20 micromolar, 72 hrs
How it was run: as §1

[30] = tested on: A704; conditions: A704 (Kidney), 20 micromolar, 72 hrs
How it was run: as §1

[31] = tested on: HT-1197; conditions: HT-1197 (Urinary bladder), 20 micromolar, 72 hrs
How it was run: as §1

[32] = tested on: CCF-STTG1; conditions: CCF-STTG1 (Brain), 20 micromolar, 72 hrs
How it was run: as §1

[33] = tested on: BT-474; conditions: BT-474 (Breast), 20 micromolar, 72 hrs
How it was run: as §1

[34] = tested on: HGC-27; conditions: HGC-27 (Stomach), 20 micromolar, 72 hrs
How it was run: as §1

[35] = tested on: BT-549; conditions: BT-549 (Breast), 20 micromolar, 72 hrs
How it was run: as §1

[36] = tested on: NCI-H2347; conditions: NCI-H2347 (Lung), 20 micromolar, 72 hrs
How it was run: as §1

Row | Structure (SMILES) | Percent Inhibition [1] | Percent Inhibition [2] | Percent Inhibition [3] | Percent Inhibition [4] | Percent Inhibition [5] | Percent Inhibition [6] | Percent Inhibition [7] | Percent Inhibition [8] | Percent Inhibition [9] | Percent Inhibition [10] | Percent Inhibition [11] | Percent Inhibition [12] | Percent Inhibition [13] | Percent Inhibition [14] | Percent Inhibition [15] | Percent Inhibition [16] | Percent Inhibition [17] | Percent Inhibition [18] | Percent Inhibition [19] | Percent Inhibition [20] | also measured
1 | O=C1c2c(O)cc(O)cc2OC(c2ccc(O)c(O)c2)C1O (stereo not drawn) [gl-34] | 16% | -31% | 3% | 9% | -9% | 3% | 0% | -7% | 10% | 3% | 4% | 7% | 42% | -5% | 2% | -13% | -5% | -9% | -6% | 14% | Percent Inhibition [21]: 1%; Percent Inhibition [22]: 9%; Percent Inhibition [23]: 1%; Percent Inhibition [24]: -11%; Percent Inhibition [25]: -13%; Percent Inhibition [26]: -3%; Percent Inhibition [27]: 6%; Percent Inhibition [28]: 7%; Percent Inhibition [29]: 8%; Percent Inhibition [30]: -13%; Percent Inhibition [31]: 10%; Percent Inhibition [32]: 4%; Percent Inhibition [33]: -15%; Percent Inhibition [34]: -8%; Percent Inhibition [35]: -9%; Percent Inhibition [36]: 2%
2 | COc1cc(O)c2c(=O)c3cc(CC=C(C)C)c(O)c(O)c3oc2c1CC=C(C)C [Go-15] | 25% | 98% | 74% | 88% | 69% | 94% | 75% | 78% | 97% | 86% | 88% | 96% | 62% | 50% | 78% | 60% | 67% | 64% | 70% | 83% | Percent Inhibition [21]: 98%; Percent Inhibition [22]: 86%; Percent Inhibition [23]: 89%; Percent Inhibition [24]: 74%; Percent Inhibition [25]: 95%; Percent Inhibition [26]: 11%; Percent Inhibition [27]: 72%; Percent Inhibition [28]: 93%; Percent Inhibition [29]: 85%; Percent Inhibition [30]: 92%; Percent Inhibition [31]: 51%; Percent Inhibition [32]: 84%; Percent Inhibition [33]: 82%; Percent Inhibition [34]: 98%; Percent Inhibition [35]: 87%; Percent Inhibition [36]: 51%
